These results are taken from ChEMBL document CHEMBL5137033, “Development of sulfonamide-based NLRP3 inhibitors: Further modifications and optimization through structure-activity relationship studies” (Eur J Med Chem, 2022).

In data set [1] the target is T1, NACHT, LRR and PYD domains-containing protein 3 (Mus musculus, UniProt Q8R4B8). Description: Inhibition of NLRP3 inflammasome in LPS-primed mouse J774.A1 cells assessed as reduction in IL-1beta secretion preincubated for 30 mins followed by ATP addition and measured after 30 mins by ELISA. The format is cell-based.
T1 sequence (Q8R4B8 whole entry, the tested form may be a part): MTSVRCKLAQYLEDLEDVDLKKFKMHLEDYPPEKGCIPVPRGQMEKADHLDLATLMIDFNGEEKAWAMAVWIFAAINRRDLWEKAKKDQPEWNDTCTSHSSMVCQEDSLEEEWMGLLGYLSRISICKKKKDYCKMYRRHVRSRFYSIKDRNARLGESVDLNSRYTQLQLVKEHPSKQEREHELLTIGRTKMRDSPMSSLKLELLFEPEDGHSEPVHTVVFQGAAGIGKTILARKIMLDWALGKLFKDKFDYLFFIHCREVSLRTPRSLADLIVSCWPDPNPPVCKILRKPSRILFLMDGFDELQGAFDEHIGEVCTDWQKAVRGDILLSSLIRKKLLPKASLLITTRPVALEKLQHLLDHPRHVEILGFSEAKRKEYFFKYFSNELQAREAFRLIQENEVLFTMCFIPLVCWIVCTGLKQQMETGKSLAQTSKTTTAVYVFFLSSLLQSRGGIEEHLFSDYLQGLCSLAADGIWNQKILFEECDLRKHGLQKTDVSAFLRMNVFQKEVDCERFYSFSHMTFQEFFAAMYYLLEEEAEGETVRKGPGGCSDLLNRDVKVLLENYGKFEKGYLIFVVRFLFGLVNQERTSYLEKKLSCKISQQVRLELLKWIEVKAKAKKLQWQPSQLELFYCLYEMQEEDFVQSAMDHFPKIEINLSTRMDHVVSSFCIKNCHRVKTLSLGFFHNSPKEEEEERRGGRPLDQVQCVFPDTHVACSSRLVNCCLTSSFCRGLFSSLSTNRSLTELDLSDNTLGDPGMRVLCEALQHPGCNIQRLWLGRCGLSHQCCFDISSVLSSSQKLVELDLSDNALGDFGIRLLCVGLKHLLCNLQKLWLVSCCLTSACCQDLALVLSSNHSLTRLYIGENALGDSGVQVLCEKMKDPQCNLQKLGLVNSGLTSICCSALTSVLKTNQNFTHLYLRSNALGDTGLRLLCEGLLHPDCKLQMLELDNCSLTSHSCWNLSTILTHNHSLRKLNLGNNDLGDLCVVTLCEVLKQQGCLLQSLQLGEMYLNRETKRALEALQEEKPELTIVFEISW
Data set [2] has as its system HEK293. Description: (§1) Cytotoxicity against HEK293 cells assessed as cell viability at 10 uM incubated for 4 hrs by MTT assay relative to control. The format is toxicity, cell-based. Conditions: human, hek293, 4 h, 10 µM.
The subject of data set [3] is J774.A1. As to the kind of experiment: (§2) Cytotoxicity against mouse J774.A1 cells assessed as cell viability at 10 uM incubated for 4 hrs by MTT assay relative to control. The format is toxicity, cell-based. Conditions: j774.a1, 4 h, 10 µM. (In general: Tetrazolium assays rely on reduction of a dye to a coloured formazan, in cell work by metabolically active cells.)
Data set [4] concerns the target NLR family CARD domain-containing protein 4 (Mus musculus) (UniProt Q3UP24). Description: Inhibition of NLRC4 inflammasome in LPS-primed mouse J774.A1 cells assessed as IL-1beta secretion at 10 uM preincubated for 1 hr followed by flagellin addition and measured after 6 hrs by ELISA relative to control. The following applies: time 7.0 hrs. The format is cell-based. More on the design: scale not given: the % may be the effect or the level left. For orientation: ELISA stands for enzyme-linked immunosorbent assay.

For data set [5], the target named is T2, Interferon-inducible protein AIM2 (Mus musculus) (UniProt Q91VJ1).
T2 sequence (whole entry): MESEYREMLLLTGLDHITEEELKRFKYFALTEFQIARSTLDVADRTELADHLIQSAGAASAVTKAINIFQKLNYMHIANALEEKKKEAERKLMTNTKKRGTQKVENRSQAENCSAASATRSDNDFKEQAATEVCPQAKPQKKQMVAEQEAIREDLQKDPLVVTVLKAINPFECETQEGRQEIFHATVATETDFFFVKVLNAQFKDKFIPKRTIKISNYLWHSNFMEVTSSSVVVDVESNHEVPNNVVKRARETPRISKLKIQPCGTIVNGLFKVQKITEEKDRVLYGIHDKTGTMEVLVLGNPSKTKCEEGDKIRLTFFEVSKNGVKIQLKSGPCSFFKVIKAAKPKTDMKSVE
Description: Inhibition of AIM2 inflammasome in LPS-primed mouse J774.A1 cells assessed as IL-1beta secretion at 10 uM preincubated for 1 hr followed by poly(dA:dT) addition and measured after 4 hrs by ELISA relative to control. It is filed as cell-based. Further details: scale not given: the % may be the effect or the level left. Conditions: time 5.0 hrs.

Data set [6] has as its target NACHT, LRR and PYD domains-containing protein 3 (Homo sapiens, UniProt Q96P20). As to the kind of experiment: Binding affinity to human recombinant full length NLRP3 transfected in HEK293F cells assessed as dissociation constant incubated for 40 mins by microscale thermophoresis analysis.
Data set [7] addresses T3, Interferon-inducible protein AIM2 (Mus musculus, UniProt Q91VJ1).
T3 sequence (Q91VJ1 whole entry): T2 sequence (whole entry)
Description: Inhibition of AIM2 inflammasome in LPS-primed mouse J774.A1 cells assessed as reduction in IL-1beta secretion preincubated for 1 hr followed by poly(dA:dT) addition and measured after 4 hrs by ELISA. The format is cell-based.

For data set [8], the target named is NLR family CARD domain-containing protein 4 (Mus musculus, UniProt Q3UP24). As to the kind of experiment: Inhibition of NLRC4 inflammasome in LPS-primed mouse J774.A1 cells assessed as reduction in IL-1beta secretion preincubated for 1 hr followed by flagellin addition and measured after 6 hrs by ELISA. It is filed as cell-based.
Sequence of NLR family CARD domain-containing protein 4 (Q3UP24 whole entry, the tested form may be a part): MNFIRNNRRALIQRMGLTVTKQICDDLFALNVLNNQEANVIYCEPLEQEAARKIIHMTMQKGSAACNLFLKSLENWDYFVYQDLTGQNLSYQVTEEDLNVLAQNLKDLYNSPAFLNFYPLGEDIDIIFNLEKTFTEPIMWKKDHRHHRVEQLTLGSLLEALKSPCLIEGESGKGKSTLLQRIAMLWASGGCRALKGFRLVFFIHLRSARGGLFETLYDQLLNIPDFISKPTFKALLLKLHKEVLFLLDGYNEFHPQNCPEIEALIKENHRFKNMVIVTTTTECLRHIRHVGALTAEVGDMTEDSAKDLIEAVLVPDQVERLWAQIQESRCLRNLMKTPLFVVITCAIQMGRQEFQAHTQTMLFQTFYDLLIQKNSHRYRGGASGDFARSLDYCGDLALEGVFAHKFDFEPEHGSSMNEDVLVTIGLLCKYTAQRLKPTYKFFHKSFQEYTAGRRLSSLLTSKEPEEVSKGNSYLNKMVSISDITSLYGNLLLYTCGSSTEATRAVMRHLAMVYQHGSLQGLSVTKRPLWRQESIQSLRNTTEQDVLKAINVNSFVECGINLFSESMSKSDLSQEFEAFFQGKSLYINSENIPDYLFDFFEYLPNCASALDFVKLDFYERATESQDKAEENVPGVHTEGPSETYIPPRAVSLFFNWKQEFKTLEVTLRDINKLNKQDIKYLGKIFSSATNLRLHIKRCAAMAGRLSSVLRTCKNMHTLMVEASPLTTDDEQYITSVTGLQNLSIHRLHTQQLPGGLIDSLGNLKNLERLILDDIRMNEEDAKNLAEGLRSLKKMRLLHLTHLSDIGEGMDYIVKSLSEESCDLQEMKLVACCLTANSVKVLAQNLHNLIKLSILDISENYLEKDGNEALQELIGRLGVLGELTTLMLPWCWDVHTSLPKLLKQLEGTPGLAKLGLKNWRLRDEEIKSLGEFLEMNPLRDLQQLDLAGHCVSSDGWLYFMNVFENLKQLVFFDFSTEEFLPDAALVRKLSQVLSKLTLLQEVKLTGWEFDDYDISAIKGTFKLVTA
Data set [9] has as its target T1, NACHT, LRR and PYD domains-containing protein 3. Description: Inhibition of NLRP3 inflammasome in LPS-primed mouse BMDM cells assessed as reduction in IL-1beta secretion preincubated for 30 mins followed by ATP addition and measured after 30 mins by ELISA. The format is cell-based.
Data set [10] can be described thus: Inhibition of IL-1beta production in C57BL/6 mouse assessed as reduction in IL-1beta level in serum at 10 mg/kg, ip pretreated with compound followed by LPS addition and measured after 2.5 hrs by ELISA. It is filed as functional.
Data set [11] in a line: as §1. The format is toxicity, cell-based. The following applies: human, HEK293 cells, read-out: Activity.
A short description of data set [12]: as §2. It is filed as toxicity, cell-based. The following applies: J774.A1 cells, read-out: Activity.

Sequence of NLR family CARD domain-containing protein 4 (Mus musculus) (Q3UP24 whole entry, the tested form may be a part): as above
Sequence of NACHT, LRR and PYD domains-containing protein 3 (Homo sapiens, UniProt Q96P20) (Q96P20 whole entry, the tested form may be a part): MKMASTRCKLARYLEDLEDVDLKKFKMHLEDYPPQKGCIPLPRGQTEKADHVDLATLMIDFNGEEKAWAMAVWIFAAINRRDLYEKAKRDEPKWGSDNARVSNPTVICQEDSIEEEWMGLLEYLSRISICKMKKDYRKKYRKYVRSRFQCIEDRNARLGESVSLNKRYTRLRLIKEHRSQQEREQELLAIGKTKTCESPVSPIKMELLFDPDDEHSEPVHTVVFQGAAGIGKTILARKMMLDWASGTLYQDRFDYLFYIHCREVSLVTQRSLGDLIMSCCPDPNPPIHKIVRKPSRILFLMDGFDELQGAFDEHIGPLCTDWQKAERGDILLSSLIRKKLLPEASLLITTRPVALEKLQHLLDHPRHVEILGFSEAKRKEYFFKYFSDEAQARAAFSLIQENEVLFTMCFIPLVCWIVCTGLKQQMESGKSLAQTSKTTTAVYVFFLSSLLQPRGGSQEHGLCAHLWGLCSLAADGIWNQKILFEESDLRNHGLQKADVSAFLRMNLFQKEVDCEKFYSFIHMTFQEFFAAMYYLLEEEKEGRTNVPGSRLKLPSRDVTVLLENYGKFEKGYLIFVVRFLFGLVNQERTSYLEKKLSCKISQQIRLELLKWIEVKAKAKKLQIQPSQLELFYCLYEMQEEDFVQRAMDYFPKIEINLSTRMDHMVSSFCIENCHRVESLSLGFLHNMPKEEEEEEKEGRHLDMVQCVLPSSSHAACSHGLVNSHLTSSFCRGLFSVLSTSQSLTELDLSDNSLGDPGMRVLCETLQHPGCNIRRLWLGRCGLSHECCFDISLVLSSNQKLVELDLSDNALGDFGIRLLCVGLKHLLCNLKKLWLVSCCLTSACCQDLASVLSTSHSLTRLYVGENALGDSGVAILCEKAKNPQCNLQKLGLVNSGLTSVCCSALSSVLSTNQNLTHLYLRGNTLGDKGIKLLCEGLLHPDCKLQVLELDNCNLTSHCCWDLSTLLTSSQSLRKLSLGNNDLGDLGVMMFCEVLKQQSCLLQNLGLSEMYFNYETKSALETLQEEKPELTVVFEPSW

Turning to `C#CCNS(=O)(=O)c1ccc(CCN(Cc2cc(Cl)ccc2N)C(=O)Cc2ccsc2)cc1`, in [1], the IC50 (usually the midpoint of a concentration-inhibition curve) stood at 1.13 µM. The Activity is 92.9% in [2] and 93.5% in data set [3].

Consider `C#CCNS(=O)(=O)c1ccc(CCN(Cc2cccc3c2OCO3)C(=O)Cc2ccc(F)cc2)cc1`, for which the half-inhibitory concentration (IC50) in data set [1] stood at 0.19 µM. The Activity in [4] was 102%; in [2], 96.2%; in data set [5] it was 59.1%; in data set [3] it was 96.8%.

For `C#CCNS(=O)(=O)c1ccc(CCN(Cc2cc(Cl)ccc2OCCC)C(=O)Cc2ccsc2)cc1`, the figures for the Activity in data set [2] and in data set [3] were 99% and 106%, respectively.

Take `C#CCNS(=O)(=O)c1ccc(CCN(Cc2cc(Cl)ccc2OCCC)C(=O)c2ccc(O)cc2)cc1`: the IC50 in data set [1] was determined as 0.62 µM. Besides, the results for the Activity in data set [2] and in [3] were 92.1% and 83.5%, respectively.

Take `C#CCNS(=O)(=O)c1ccc(CCN(Cc2cc(Cl)ccc2C(F)(F)F)C(=O)Cc2ccsc2)cc1`: in data set [1], the IC50 was found to be 0.46 µM. The Activity in data set [2] worked out at 92.1%; in [3], 93.1%.

In the case of `C#CCNS(=O)(=O)c1ccc(CCN(Cc2cccc3c2OCO3)C(=O)c2ccc(F)cc2)cc1`, the IC50 in [1] is 0.93 µM. Also, the Activity came to 93.4% in [2] and 99.5% in data set [3].

In the case of `C#CCNS(=O)(=O)c1ccc(CCN(Cc2cc(Cl)ccc2OCCC)C(=O)c2ccc(F)cc2)cc1`, the IC50 in data set [1] is 0.12 µM; in [7], over 10 µM; in data set [8], over 10 µM; in data set [9], 0.91 µM. Moreover, the Kd (in general, a measure of binding affinity in units of concentration) in data set [6] worked out at 0.084 µM. Further, the Activity in data set [4] stood at 101%; in data set [2] it was 91.6%; in [5], 67.6%; in [3] it was 96.3%. The inhibition in vivo (as a rule, the drop in the measured response relative to a control, in per cent) at 10 mg/kg in data set [10] worked out at 75%.

As for `C#CCNS(=O)(=O)c1ccc(CCN(Cc2cc(Cl)ccc2OCCC)C(=O)Cc2ccc(F)cc2)cc1`, the IC50 in data set [1] worked out at 0.28 µM. In addition, the Activity in data set [2] is 90.6%; in data set [3], 102.2%.

With `CCCOc1ccc(Cl)cc1CN(CCc1ccc(S(=O)(=O)N2CCC2)cc1)C(=O)c1csc2ccccc12`, the 50% inhibitory concentration (IC50) in [1] came out at 7.58 µM. The figures for the Activity in data set [2] and in data set [3] were 100.7% and 107%, respectively.

In the case of `CCCOc1ccc(Cl)cc1CN(CCc1ccc(S(=O)(=O)N2CCC2)cc1)C(=O)Cc1ccc(F)cc1`, in [1], the concentration for half-maximal inhibition (IC50) came to 1.35 µM. Besides, the Activity is 109% in data set [4], 103.6% in data set [2], 102% in data set [5] and 106.1% in data set [3].

`C#CCNS(=O)(=O)c1ccc(CCN(Cc2cc(Cl)ccc2[N+](=O)[O-])C(=O)Cc2ccsc2)cc1`: the half-maximal inhibitory concentration (IC50) in data set [1] worked out at 0.3 µM. The Activity stood at 78.9% in [4], 96.2% in data set [2], 82.7% in [5] and 98.7% in data set [3].

In the case of `CCCOc1ccc(Cl)cc1CN(CCc1ccc(S(=O)(=O)NCC(C)(C)C)cc1)C(=O)Cc1ccsc1`, the IC50 in [1] stood at 0.66 µM. Moreover, the values for the Activity in [4], in data set [5] and in [3] were 89.3%, 52.3% and 105.1%, respectively.

For the compound `C#CCNS(=O)(=O)c1ccc(CCN(Cc2ccccc2OCCC)C(=O)Cc2ccsc2)cc1`, in data set [1], the IC50 stood at 0.79 µM. Besides, the Activity in [4] was 70.1%; in data set [2], 98.9%; in data set [5], 61.4%; in data set [3], 100.2%.

`C#CCNS(=O)(=O)c1ccc(CCN(Cc2cc(Cl)ccc2OCC#C)C(=O)Cc2ccsc2)cc1`: in data set [1], the IC50 was found to be 0.21 µM. Also, the Activity in data set [2] was determined as 94.8%; in [3], 95.5%.

Take `C#CCS(=O)(=O)c1ccc(CCN(Cc2cc(Cl)ccc2OCCC)C(=O)Cc2ccsc2)cc1`: the IC50 in data set [1] amounted to 0.19 µM. Besides, the Activity in data set [4] turned out to be 0%; in data set [2], 88.7%; in [5] it was 0%; in data set [3], 81.1%.

As for `C#CCNS(=O)(=O)c1ccc(CCN(Cc2ccco2)C(=O)Cc2ccsc2)cc1`, the IC50 in [1] was 2.49 µM. The Activity in data set [4] is 76.2%; in data set [2], 96.4%; in [5], 89.4%; in data set [3] it was 112.9%.

As for `C#CCNS(=O)(=O)c1ccc(CCN(Cc2cc(Cl)ccc2O)C(=O)Cc2ccsc2)cc1`, the IC50 in data set [1] is 0.68 µM. Also, the Activity stood at 8% in data set [4], 97.6% in [2], 47.3% in data set [5] and 92% in data set [3].

For `CCCOc1ccc(Cl)cc1CN(CCc1ccc(S(=O)(=O)N2CCOCC2)cc1)C(=O)Cc1ccsc1`, the IC50 in data set [1] worked out at 0.47 µM. In addition, the Activity in [2] is 88.3%; in data set [3] it was 103.4%.

For `C#CCNS(=O)(=O)c1ccc(CCN(Cc2cc(Cl)ccc2OCCC)C(=O)CCCc2ccsc2)cc1`, in data set [1], the IC50 was found to be 1.17 µM. The Activity in data set [2] was found to be 89.1%; in data set [3], 97.9%.

Take `C#CCNS(=O)(=O)c1ccc(CCN(Cc2ccsc2)Cc2cc(Cl)ccc2OCCC)cc1`: the half-maximal inhibitory concentration (IC50) in data set [1] turned out to be 0.75 µM. Besides, the Activity in [4] was determined as 28.9%; in data set [2], 82%; in data set [5], 49.8%; in data set [3], 90.5%.

Turning to `C#CCNS(=O)(=O)c1ccc(CCN(Cc2cc(Cl)ccc2OCCC)C(=O)c2csc3c2CCCC3)cc1`, the half-maximal inhibitory concentration (IC50) in data set [1] amounted to 0.51 µM. In addition, the Activity in data set [2] came out at 95.9%; in data set [3] it was 93.7%.

`C#CCS(=O)(=O)c1ccc(CCN(Cc2cc(Cl)ccc2OCCC)C(=O)c2csc3ccccc23)cc1`: in data set [1], the IC50 was determined as 0.44 µM. Further, the Activity is 29.1% in [4], 95.6% in data set [2], 0% in [5] and 85.7% in [3].

For `CC(C)(C)c1coc(S(=O)(=O)NC(=O)Nc2c3c(cc4c2CCC4)CCC3)c1`, the viability at 4 h, 10 µM in data set [11] is 95.2%; in data set [12] it was 94.9%.

On to `C#CCNS(=O)(=O)c1ccc(CCN(Cc2cccc3c2OCO3)C(=O)Cc2ccsc2)cc1`, for which, in data set [1], the IC50 was determined as 0.34 µM. For the same compound, the Activity in data set [4] worked out at 66.9%; in [2] it was 100.7%; in [5], 68.8%; in data set [3], 100%.

Consider `C#CCNS(=O)(=O)c1ccc(CCN(Cc2cc(Cl)ccc2OCCC)C(=O)c2ccc(B3OC(C)(C)C(C)(C)O3)cc2)cc1`, for which the IC50 in data set [1] stood at 2.49 µM. Besides, the Activity was determined as 95.2% in data set [2] and 88.1% in data set [3].

Take `C#CCN(C)S(=O)(=O)c1ccc(CCN(Cc2cc(Cl)ccc2OCCC)C(=O)Cc2ccsc2)cc1`: the IC50 in [1] is 0.32 µM; in [7], over 10 µM; in data set [8], over 10 µM. The Activity was found to be 80.8% in [4], 94.5% in [2], 108% in data set [5] and 105.8% in [3].

As to `C#CCNS(=O)(=O)c1ccc(CCN(Cc2cc(Cl)ccc2OCCC)C(=O)c2csc3ccccc23)cc1`, in [1], the IC50 was determined as 0.13 µM. The Activity in [4] came to 74.7%; in [2], 92.6%; in [5] it was 79.7%; in [3] it was 108.1%.

Consider `C#CCNS(=O)(=O)c1ccc(CCN(Cc2cc(Cl)ccc2OCCC)C(=O)Cc2csc3ccccc23)cc1`, for which the IC50 in data set [1] was 0.21 µM; in [7], over 10 µM; in data set [8], over 10 µM. Also, the Activity in [4] amounted to 85.6%; in [2], 99.8%; in data set [5] it was 96.7%; in data set [3], 105.4%.

As to `C#CCNS(=O)(=O)c1ccc(CCN(Cc2cc(Cl)ccc2OCCC)C(=O)c2ccc([N+](=O)[O-])cc2)cc1`, the IC50 in data set [1] was 0.76 µM. For the same compound, the results for the Activity in data set [2] and in [3] were 91.6% and 101.3%, respectively.
